From patent US9694401B2, “Method and apparatus for treating perfluoroalkyl compounds” (ThinkVillage-Kerfoot, LLC, priority 2013, dated 2017)
Where a name gives a salt, the structure may show the parent alone. Read-outs that look alike come from different tables or passages of the source.

Columns and labels:
[1] = cited from earlier work
[2] = Bench scale groundwater treatment with peroxide-coated ozone nanobubbles (1260 ppmV O3, 10% H2O2); assay type: physicochemical; settings: for PFC concentration in groundwater, 1 HR: 1260 ppmV O3, 10% H2O2, 1 HR; for PFC concentration in groundwater, 2 HR: 1260 ppmV O3, 10% H2O2, 2 HR; for % REMOVAL from groundwater: 1260 ppmV O3, 10% H2O2, start to last time point; for PFC concentration in groundwater, START: untreated start (0 minutes)
Procedure: (§1) On one foam fire-fighting site, samples of groundwater from monitoring well 1 (MW1) and soil samples between MW1 and monitoring well 3 (MW3) were shipped to the laboratory in coolers with blue ice packing to maintain the temperature at less than 4.4° C. (40° F.). Two sets of tests were conducted, groundwater and soil treatment.
Bench scale tests were conducted in a pressurized glass cylindrical reaction cell (17-20 psi) holding a laminar stainless steel spargepoint with a 0.20-micron porous surface. Four liters of groundwater were mixed together. A liter of distilled water as a blank was treated and set aside for analysis. The first liter of groundwater was also set aside as “start” condition (0 minutes). One liter of groundwater from MW1 was added to the cell. An ozone flow of 5 cm^3/sec was added at 1260 ppmV. Peroxide (10%) flow was 8 cm^3/minute and treated for 30 minutes. Pressure was 17-20 psi.
A second liter was added to the chamber and treated for 60 minutes. The blank, original (start), 30 minute, and 60 minute samples were placed in ice for analysis. A final sample (120 minute) was treated with 60 minutes of peroxide, but ozone continued for 120 minutes.

[3] = Bench scale soil treatment with peroxide-coated ozone nanobubbles (2400 ppmV O3), soil fraction; assay type: physicochemical; settings: for decomposing the other PF compounds (removal) by the new solution: matrix not given; for removal in the soil series: 2400 ppmV O3, 41.1° C. to 43.3° C.
Procedure: as §1
(§2) For soil samples, 1000 cm^3 of soil was mixed together and then separated into four 250 cm^3 aliquots. The first was submitted as background (start) condition. The remaining three were treated with a fine bubble-coated ozone bubble solution from the pressurized generator (20-25 psi). The ozone concentration was 2400 ppmV with a flow of 5 cm^3/sec. The peroxide was 10% solution and supplied at 5 cm^3/min flow. The generator was filled with 500 liters of groundwater from the site well (MW1) which was delivered in 50 cm^3 surges to a two-liter flask with the soil under constant stirring action. The subsequent reaction raised the temperature of the soil/liquid solution from 20.6° C. (69° F.) to 22.8° C. (73° F.) after 10 minutes, reaching 41.1° C. (106° F.) after 30 minutes. For the 30-minute treatment, no further bubble solution was added; the flask was placed over water until bubbling ceased or two hours and then placed in chilled water. The overlying groundwater was decanted off, and the underlying semi-solid was placed in a glass jar and chilled for transport for analysis. A similar procedure was followed for the 60- and 120-minute soil aliquots.

[4] = Bench scale groundwater treatment with peroxide-coated ozone nanobubbles (1260 ppmV O3, 10% H2O2); assay type: physicochemical; settings: 1260 ppmV O3, 10% H2O2, 3 HR
[5] = Bench scale soil treatment (2400 ppmV O3), groundwater over soil slurry; assay type: physicochemical; settings: for PFC concentration in groundwater over soil slurry, 30 MIN / PFC concentration in groundwater over soil slurry, 60 MIN / PFC concentration in groundwater over soil slurry, 120 MIN / % REMOVAL in groundwater over soil slurry: 2400 ppmV O3, 10% peroxide; for % REMOVAL in groundwater over soil slurry: start to 120 MIN
Procedure: as §1, §2

[6] = cited from earlier work; remark: listed apart in the source
[7] = cited from earlier work; remark: listed apart in the source
[8] = 155 mg/L PFOA, 12 g/L persulfate, 80° C., cited from earlier work
[9] = cited from earlier work; remark: listed apart in the source
[10] = cited from earlier work; for Water Solubility: at 25° C.

Compound | Acidity (pKa) [1] | PFC concentration in groundwater, 1 HR [2] | PFC concentration in groundwater, 2 HR [2] | % REMOVAL from groundwater [2] | PFC concentration in groundwater, START [2] | decomposing the other PF compounds (removal) by the new solution [3] | PFC concentration in groundwater, 3 HR [4] | PFC concentration in groundwater over soil slurry, 30 MIN [5] | PFC concentration in groundwater over soil slurry, 60 MIN [5] | PFC concentration in groundwater over soil slurry, 120 MIN [5] | % REMOVAL in groundwater over soil slurry [5] | PFC concentration in groundwater over soil slurry, START [5] | further results
OO [H2O2, hydrogen peroxide] | 11.7 | – | – | – | – | – | – | – | – | – | – | – | –
O=C(O)C(F)(F)C(F)(F)C(F)(F)C(F)(F)C(F)(F)F [PFHxA, perfluorohexanoic acid] | – | 110 | 150 | 69.2% | 270 | 86.2% | 86 | 75 | 34 | 23 | 91.5% | 270 | –
O=S(=O)(O)C(F)(F)C(F)(F)C(F)(F)C(F)(F)C(F)(F)C(F)(F)F [PFHxS, perfluorohexane sulfonate] | – | 100 | 110 | 86% | 300 | 98.1% | 42 | 87 | 14 | 8 | 97.4% | 300 | –
O=C(O)C(F)(F)C(F)(F)C(F)(F)C(F)(F)C(F)(F)C(F)(F)C(F)(F)F [PFOA, perfluorooctanoic acid] | 0 | 17 | 13 | 73.6% | 34 | – | 9 | 22 | 4 | 3 | 91.2% | 34 | removal in the soil series [3]: over 97%; Solubility in other solvents [6]: Polar organic solvents; PFOA degraded ([7]; 1 M H2O2 and 0.5 mM iron (III), within 150 minutes): 94%; PFOA degradation ([7]; reactions generating O2^− or HO2^− alone): degraded rapidly; Fluoride ions formed (molar ratio) ([8]; 6 hours): 77.5%; carbon dioxide formed (molar ratio) ([8]; 6 hours): 70.2%; aqueous phase PFOA concentration after treatment ([8]; after 6 hours, 0.6 mg/L = detection limit): less than 0.6 mg/L; Vapor Pressure at 20° C. [9]: 0.017 mm Hg; Solubility in water ([10]; Table 2): Soluble, 9.5 g/L; Water Solubility ([10]; purified): 9.5 × 10^3 (purified) mg/L
O=S(=O)(O)C(F)(F)C(F)(F)C(F)(F)C(F)(F)C(F)(F)C(F)(F)C(F)(F)C(F)(F)F [PFOS (Potassium Salt)] | – | – | – | – | – | – | – | – | – | – | – | – | Vapor Pressure at 20° C. [9]: 2.48 × 10^−6 mm Hg; Water Solubility ([10]; filtered seawater): (freshwater), 25 (filtered mg/L; Water Solubility ([10]; freshwater): 370 mg/L
O=S(=O)(O)C(F)(F)C(F)(F)C(F)(F)C(F)(F)C(F)(F)C(F)(F)C(F)(F)C(F)(F)F [PFOS, perfluorooctane sulfonate] | <<0 | 150 | 160 | 82.3% | 430 | – | 76 | 340 | 33 | 44 | 89.8% | 430 | removal in the soil series [3]: over 99%
O=C(O)C(F)(F)C(F)(F)C(F)(F)C(F)(F)F [PFPeA, perfluoropentanoic acid] | – | 27 | 23 | 82.1% | 84 | 89.8% | 15 | 13 | 8 | 6 | 92.9% | 84 | –
